Assay results as given in patent publication US7713994B2 (Wyeth LLC, priority 2005, dated 2010).

What was measured:
HCT-116 = assay: Cytotoxicity assay (SRB), HCT-116; assay type: cell-based; details: Homo sapiens, HCT-116, 72 h, HCT116 cells, SRB, three days; read-out: In Vitro Cellular Activity IC50 HCT116
Procedure, shortened: (§1)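 Percentage survival is derived from SRB absorbance (540 nm) versus untreated cells. Exposures were 3 days, except 6 days for BT474, at 37 °C and 7% CO2.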

cyclin E/CDK2 enzyme = target: T1, cyclin E/CDK2 enzyme (Homo sapiens, UniProt P24941); assay: CDK2 ELISA kinase assay (phospho-Rb ser 795 detection); assay type: biochemical; details: In Vitro Enzyme Assays, read-out: CDK2 IC50
T1 construct: made in house; host or cells: Sf9 insect cells, recombinant baculovirus
Procedure, shortened: (§2)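 Wells were coated overnight with GST-Rb C-terminal fragment, then blocked. Compound (10 ug/ml final) and cyclin/CDK enzyme from baculovirus-infected Sf9 cells with 200 μM ATP reacted 1 h at 30° C. Ser795 phosphorylation was detected by ELISA at 450 nm.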

cyclin B/CDK1 enzyme = target: T2, cyclin B/CDK1 enzyme (Homo sapiens, UniProt P06493); assay: CDK1 ELISA kinase assay (phospho-Rb ser 795 detection); assay type: biochemical; details: In Vitro Enzyme Assays, read-out: CDK1 IC50
T2 construct: purchased New England BioLabs; host or cells: Sf9 insect cells, recombinant baculovirus
Procedure, shortened: as §2

LoVo = assay: Cytotoxicity assay (SRB), LoVo; assay type: cell-based; details: Homo sapiens, LoVo, 72 h, LoVo cells, SRB, three days; read-out: In Vitro Cellular Activity IC50 LOVO
Procedure, shortened: as §1

cyclin D1/cdk 4 enzyme = target: T3, cyclin D1/cdk 4 enzyme (Homo sapiens, UniProt P11802); assay: CDK4 ELISA kinase assay (phospho-Rb ser 795 detection); assay type: biochemical; details: In Vitro Enzyme Assays, 200 μM ATP, read-out: CDK4 IC50
T3 construct: made in house; host or cells: Sf9 insect cells, recombinant baculovirus
Procedure, shortened: as §2

MCF-7 = assay: Cytotoxicity assay (SRB), MCF-7; assay type: cell-based; details: Homo sapiens, MCF7, 72 h, MCF-7 cells, SRB, three days; read-out: In Vitro Cellular Activity IC50 MCF-7
Procedure, shortened: as §1

BT474 = assay: Cytotoxicity assay (SRB), BT474; assay type: cell-based; details: Homo sapiens, BT-474, 144 h, BT474 cells, SRB, 6 days; read-out: In Vitro Cellular Activity IC50 BT474
Procedure, shortened: as §1

T3 sequence (P11802 whole entry, species assumed): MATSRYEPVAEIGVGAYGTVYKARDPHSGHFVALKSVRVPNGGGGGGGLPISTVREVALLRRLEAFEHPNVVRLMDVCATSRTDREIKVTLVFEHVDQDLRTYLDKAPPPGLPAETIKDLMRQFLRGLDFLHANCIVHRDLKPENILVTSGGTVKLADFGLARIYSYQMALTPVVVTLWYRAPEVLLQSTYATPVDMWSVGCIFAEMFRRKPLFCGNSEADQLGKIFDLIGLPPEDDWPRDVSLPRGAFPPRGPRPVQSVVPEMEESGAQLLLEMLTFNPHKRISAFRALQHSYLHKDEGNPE
T3 sequence (P24385 whole entry partner, species assumed): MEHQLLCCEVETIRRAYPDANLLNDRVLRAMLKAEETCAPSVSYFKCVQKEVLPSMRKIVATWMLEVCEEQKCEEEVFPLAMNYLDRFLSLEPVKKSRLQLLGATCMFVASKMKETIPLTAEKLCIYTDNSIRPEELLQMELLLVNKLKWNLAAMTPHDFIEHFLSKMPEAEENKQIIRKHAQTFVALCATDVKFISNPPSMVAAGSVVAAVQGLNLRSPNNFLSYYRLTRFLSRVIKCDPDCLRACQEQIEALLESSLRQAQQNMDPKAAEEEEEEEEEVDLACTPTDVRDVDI
T2 sequence (P06493 whole entry): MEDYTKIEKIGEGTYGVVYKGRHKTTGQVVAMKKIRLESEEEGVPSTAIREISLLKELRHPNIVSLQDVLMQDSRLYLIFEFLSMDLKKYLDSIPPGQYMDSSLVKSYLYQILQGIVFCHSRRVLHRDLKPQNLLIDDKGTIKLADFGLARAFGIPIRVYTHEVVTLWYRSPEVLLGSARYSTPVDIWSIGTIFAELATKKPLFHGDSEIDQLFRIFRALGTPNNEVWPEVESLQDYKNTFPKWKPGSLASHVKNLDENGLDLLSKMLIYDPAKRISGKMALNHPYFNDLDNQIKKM
T2 sequence (P14635 whole entry partner): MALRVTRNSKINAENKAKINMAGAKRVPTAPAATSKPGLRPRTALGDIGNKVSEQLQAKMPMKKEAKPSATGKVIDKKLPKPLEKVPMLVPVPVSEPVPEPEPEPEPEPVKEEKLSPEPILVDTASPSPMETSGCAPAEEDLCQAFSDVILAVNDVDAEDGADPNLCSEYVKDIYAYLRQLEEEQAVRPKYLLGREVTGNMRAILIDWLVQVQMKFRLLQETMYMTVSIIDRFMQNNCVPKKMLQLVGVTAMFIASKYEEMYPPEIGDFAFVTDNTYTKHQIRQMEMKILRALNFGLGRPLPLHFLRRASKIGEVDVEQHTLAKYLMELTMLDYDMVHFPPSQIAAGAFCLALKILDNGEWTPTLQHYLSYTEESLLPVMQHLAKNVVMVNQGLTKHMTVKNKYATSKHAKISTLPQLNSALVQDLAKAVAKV

Structure (SMILES)	IC50 (HCT-116)	IC50 (cyclin E/CDK2 enzyme)	IC50 (cyclin B/CDK1 enzyme)	IC50 (LoVo)	IC50 (cyclin D1/cdk 4 enzyme)	IC50 (MCF-7)	IC50 (BT474)
O=C1NC(=O)c2ccc(I)cc2/C1=C/NCc1ccc(NC(=O)c2ccccc2)c(O)c1 [Example 334, N-[2-Hydroxy-4-({[(Z)-(6-iodo-1,3-dioxo-2,3-dihydroisoquinolin-4(1H)-ylidene)methyl]amino}methyl)phenyl]benzamide]	7.1 µM	7.8 µM	> 50 µM	5.9 µM	0.07 µM	7.9 µM	7.2 µM
CC(C)C(=O)Nc1ccc(CN/C=C2\C(=O)NC(=O)c3ccc(I)cc32)cc1O [Example 335, N-[2-Hydroxy-4-({[(Z)-(6-iodo-1,3-dioxo-2,3-dihydroisoquinolin-4(1H)-ylidene)methyl]amino}methyl)phenyl]-2-methylpropanamide]	5 µM	1.4 µM	> 50 µM	4.5 µM	0.02 µM	5.9 µM	5.1 µM
C/C=C(\C)C(=O)Nc1ccc(CN/C=C2\C(=O)NC(=O)c3ccc(I)cc32)cc1O [Example 336, (2E)-N-[2-Hydroxy-4-({[(Z)-(6-iodo-1,3-dioxo-2,3-dihydroisoquinolin-4(1H)-ylidene)methyl]amino}methyl)phenyl]-2-methylbut-2-enamide]	12 µM	5.8 µM	> 50 µM	14 µM	0.04 µM	6.1 µM	19 µM
O=C(/C=C\Cl)Nc1ccc(CN/C=C2\C(=O)NC(=O)c3ccc(I)cc32)cc1O [Example 337, (2Z)-3-Chloro-N-[2-hydroxy-4-({[(Z)-(6-iodo-1,3-dioxo-2,3-dihydroisoquinolin-4(1H)-ylidene)methyl]amino}methyl)phenyl]acrylamide]	0.67 µM	1 µM	3.1 µM	0.91 µM	0.02 µM	1.1 µM	0.73 µM
C=C(CN(C)C)C(=O)Nc1ccc(CN/C=C2\C(=O)NC(=O)c3ccc(I)cc32)cc1O [Example 338, 2-[(Dimethylamino)methyl]-N-[2-hydroxy-4-({[(Z)-(6-iodo-1,3-dioxo-2,3-dihydroisoquinolin-4(1H)-ylidene)methyl]amino}methyl)phenyl]acrylamide]	0.95 µM	2.8 µM	13.8 µM	0.87 µM	0.1 µM	0.94 µM	2 µM
CC#CC(=O)Nc1ccc(CN/C=C2\C(=O)NC(=O)c3ccc(I)cc32)cc1O [Example 339, N-[2-Hydroxy-4-({[(Z)-(6-iodo-1,3-dioxo-2,3-dihydroisoquinolin-4(1H)-ylidene)methyl]amino}methyl)phenyl]but-2-ynamide]	10 µM	0.37 µM	0.82 µM	12 µM	0.07 µM	16 µM	5.1 µM
C#CC(=O)Nc1ccc(CN/C=C2\C(=O)NC(=O)c3ccc(I)cc32)cc1O [Example 340, N-[2-Hydroxy-4-({[(Z)-(6-iodo-1,3-dioxo-2,3-dihydroisoquinolin-4(1H)-ylidene)methyl]amino}methyl)phenyl]prop-2-ynamide]	1.2 µM	1.6 µM	6.1 µM	1.4 µM	0.07 µM	1.4 µM	1.4 µM
CCC(=O)Nc1ccc(CN/C=C2\C(=O)NC(=O)c3ccc(I)cc32)cc1O [Example 341, N-[2-Hydroxy-4-({[(Z)-(6-iodo-1,3-dioxo-2,3-dihydroisoquinolin-4(1H)-ylidene)methyl]amino}methyl)phenyl]propanamide]	1 µM	0.59 µM	3.1 µM	0.95 µM	0.02 µM	2.5 µM	0.93 µM
C=CC(=O)Nc1ccc(CN/C=C2\C(=O)NC(=O)c3ccc(I)cc32)cc1O [Example 342, N-[2-Hydroxy-4-({[(Z)-(6-iodo-1,3-dioxo-2,3-dihydroisoquinolin-4(1H)-ylidene)methyl]amino}methyl)phenyl]acrylamide]	0.12 µM	0.86 µM	2.9 µM	0.09 µM	0.01 µM	0.15 µM	0.07 µM
C/C=C/C(=O)Nc1ccc(CN/C=C2\C(=O)NC(=O)c3ccc(I)cc32)cc1OC(=O)/C=C/C [Example 343, 2-[(2E)-But-2-enoylamino]-5-({[(Z)-(6-iodo-1,3-dioxo-2,3-dihydroisoquinolin-4(1H)-ylidene)methyl]amino}methyl)phenyl (2E)-but-2-enoate]	12 µM	22.6 µM	> 50 µM	9.8 µM	7.8 µM	14 µM	7.7 µM
CCCOc1ccc(CN/C=C2\C(=O)NC(=O)c3ccc(Br)cc32)cc1C(N)=O [Example 353, 5-({[(Z)-(6-Bromo-1,3-dioxo-2,3-dihydroisoquinolin-4(1H)-ylidene)methyl]amino}methyl)-2-propoxybenzamide]	6.1 µM	31.7 µM	> 50 µM	1 µM	> 50 µM	> 50 µM	0.67 µM
CC(c1ccc(N/C=C2\C(=O)NC(=O)c3ccc(I)cc32)cc1)N1CCCC1 (stereo not shown) [Example 354, 6-Iodo-4-{[4-(1-pyrrolidin-1-yl-ethyl)-phenylamino]-methylene}-4H-isoquinoline-1,3-dione]	4.8 µM	5 µM	> 50 µM	3.5 µM	0.23 µM	0.94 µM	8.6 µM
CN1CCN(C2CCC(NC=C3C(=O)NC(=O)c4ccc(I)cc43)CC2)CC1 (stereo not shown) [Example 360, 6-Iodo-4-{[4-(4-methyl-piperazin-1-yl)-cyclohexylamino]-methylene}-4H-isoquinoline-1,3-dione]	9.6 µM	> 50 µM	> 50 µM	9.6 µM	0.46 µM	8.9 µM	16 µM
CN1CCCC1c1ccc(NC=C2C(=O)NC(=O)c3ccc(I)cc32)cc1 (stereo not shown) [Example 361, 6-Iodo-4-{[4-(1-methyl-pyrrolidin-2-yl)-phenylamino]-methylene}-4H-isoquinoline-1,3-dione]	3.8 µM	17.9 µM	45.5 µM	5.9 µM	0.22 µM	2.6 µM	0.86 µM
COc1cnc(CNC=C2C(=O)NC(=O)c3ccc(I)cc32)cc1O [Example 362, 6-Iodo-4-{[(4-hydroxy-5-methoxy-pyridin-2-ylmethyl)-amino]-methylene}-4H-isoquinoline-1,3-dione]	1.3 µM	0.5 µM	14.7 µM	0.7 µM	0.01 µM	1 µM	0.2 µM
CCCOc1cnc(CNC=C2C(=O)NC(=O)c3ccc(-n4cccc4)cc32)cc1O [Example 363, 4-{[(4-Hydroxy-5-propoxy-pyridin-2-ylmethyl)-amino]-methylene}-6-pyrrol-1-yl-4H-isoquinoline-1,3-dione]	3.2 µM	14.7 µM	> 50 µM	2.3 µM	0.006 µM	2.4 µM	1.5 µM
CCCOc1cnc(CNC=C2C(=O)NC(=O)c3ccc(Br)cc32)cc1O [Example 365, 4-{[(4-Hydroxy-5-propoxy-pyridin-2-ylmethyl)-amino]-methylene}-6-bromo-4H-isoquinoline-1,3-dione]	1.3 µM	1.9 µM	> 50 µM	1 µM	0.07 µM	1.2 µM	0.76 µM
COC(=O)[C@H]1CCCN1Cc1ccc(NC=C2C(=O)NC(=O)c3ccc(I)cc32)cc1 [Example 367, D-1-{4-[(6-Iodo-1,3-dioxo-2,3-dihydro-1H-isoquinolin-4-ylidenemethyl)-amino]-benzyl}-pyrrolidine-2-carboxylic acid methyl ester]	13 µM	43.4 µM	> 50 µM	26 µM	12.6 µM	13 µM	15 µM
O=C1NC(=O)c2ccc(I)cc2/C1=C/Nc1ccc(CN2CCC[C@@H]2CO)cc1 [Example 368, D-4-{[4-(2-Hydroxymethyl-pyrrolidin-1-ylmethyl)-phenylamino]-methylene}-6-iodo-4H-isoquinoline-1,3-dione]	3.2 µM	30.3 µM	> 50 µM	3.7 µM	0.51 µM	1.8 µM	0.5 µM
